Biological target: T1, PDE4D5 (Homo sapiens, UniProt Q08499)
T1 construct: Using Full-Length Human PDE4 Isoforms; Long Forms PDE4D5, PDE4C3, PDE4B1 and Short Form PDE4B2; made in house; cytosol fraction of cell lysate
Assay: PDE assay, activation of PDE4D5 long form (Experiment 1)
Type: biochemical
Conditions: for activation at 100 µM: 100 μM test compound, mean % increase in counts over basal activity
Protocol: One suitable method of detecting whether or not a compound is capable of serving as an activator of a PDE4 long form is using a two-step radio-assay procedure described in Experiment 1. In summary, the method involves incubating a PDE4 long form with a test small molecule activator, together with [^3H]-labelled cAMP to assess alterations in the breakdown of cAMP to the 5′-adenosine monophosphate (5′-AMP) product. A sample of the reaction mixture from such an incubation is subsequently treated with snake venom 5′-nucleotidase to allow conversion of the nucleotide [^3H]-labelled 5′-AMP to the uncharged nucleoside [^3H]-labelled adenosine, which can be separated and quantified to assess PDE4 activity and the effect of the test compound (Thompson, W. J. and Appleman, M. M. Biochemistry 10: 311-316, 1971, with some modifications as described in: Marchmont, R. J. and Houslay, M. D. Biochem J. 187: 381-92, 1980).
Experiment 1: Measurement of Modulation of Enzyme Activity by PDE4 Long Form Activators of the Present Invention Using Full-Length Human PDE4 Isoforms; Long Forms PDE4D5, PDE4C3, PDE4B1 and Short Form PDE4B2 • (Marchmont, R. J. and Houslay, M. D. Biochem. J. 187: 381-92, 1980)
For transient transfection of exogenous PDE4 long isoforms, HEK 293 cells were transfected with pcDNA3.1 or pDEST^TM PDE4 expression vectors using Lipofectamine LTX/Plus reagent (Invitrogen) as outlined by the manufacturer.
Where stable cell lines were generated the clonal isolates were expanded to obtain cell lines that stably expressed the full-length human PDE4 long isoforms and the full length human PDE4B2 short isoform. These were called the HEK-PDE4D5, HEK-PDE4B1 and HEK-PDE4B2 cell lines, respectively.
HEK-PDE4D5 cells were seeded out in 100 mm plates and incubated at 37° C. in an atmosphere of 5% CO2, 95% air. Cell lysates were prepared using KHEM buffer [50 mM KCl, 10 mM EGTA, 50 mM HEPES (pH 7.2), 1.92 mM MgCl2].
To prepare the cell lysates, the 100 mm plates containing the cells were placed on ice and washed with ice-cold PBS (phosphate buffered saline, pH 7.4). KHEM buffer (500 μL) was added to the cells. Cells were then scraped off the plate and triturated using a needle (BD Microlance™ 0.8, 40 mm). The lysed cells were then centrifuged at 2000 rpm for 10 minutes to remove cell debris and the supernatant (cell lysate containing recombinant PDE4D5) was transferred to a fresh tube and kept on ice.
The cell lysate containing recombinant PDE4D5 was transferred into a centrifuge tube and placed into an ultracentrifuge (BECKMAN COULTER) and spun at high speed (100,000 g) for 30 minutes at 4° C. The cytosol fraction was then collected and its protein amount determined using a BCA protein assay.
PDE assays were performed in thin walled V-bottomed 96-well plates. The assays were performed at a final concentration of 10 mM Tris/5 mM MgCl2 plus PDE4D5 cell lysate cytosol fraction, containing over-expressed PDE4D5, with and without test compound. The lysate/compound mix were incubated together for 15 min at room temperature on an orbital shaker prior to addition of [^3H] cAMP (final concentration 1 μM [^3H] cAMP; Perkin Elmer) to a final volume of 50 μL per reaction. The reactions were then incubated for 10 minutes at 30° C., terminated by heating for 2 min at 95° C. and allowed to cool. Snake venom (12.5 μL of 1 mg/mL; Crotalus atrox, Sigma) was then added and the plates were agitated and incubated for a further 15 minutes at 30° C. Dowex ion exchange resin (Sigma, chloride form, 200-400 mesh; 200 μL; prepared as a 1:1 Dowex:water stock, thoroughly re-suspended and diluted 2:1 with ethanol) was then added to each well and the plates incubated for 15 min at room temperature on an orbital shaker ensuring sufficient agitation for resin suspension (550 RPM). The reaction mixture was then transferred to a 96 well filter plate (Millipore; 0.45 μm pore size) and filtered into a receiving 96-well plate to remove the dowex suspension. […]

T1 sequence (Q08499 1-745 isoform Q08499-6): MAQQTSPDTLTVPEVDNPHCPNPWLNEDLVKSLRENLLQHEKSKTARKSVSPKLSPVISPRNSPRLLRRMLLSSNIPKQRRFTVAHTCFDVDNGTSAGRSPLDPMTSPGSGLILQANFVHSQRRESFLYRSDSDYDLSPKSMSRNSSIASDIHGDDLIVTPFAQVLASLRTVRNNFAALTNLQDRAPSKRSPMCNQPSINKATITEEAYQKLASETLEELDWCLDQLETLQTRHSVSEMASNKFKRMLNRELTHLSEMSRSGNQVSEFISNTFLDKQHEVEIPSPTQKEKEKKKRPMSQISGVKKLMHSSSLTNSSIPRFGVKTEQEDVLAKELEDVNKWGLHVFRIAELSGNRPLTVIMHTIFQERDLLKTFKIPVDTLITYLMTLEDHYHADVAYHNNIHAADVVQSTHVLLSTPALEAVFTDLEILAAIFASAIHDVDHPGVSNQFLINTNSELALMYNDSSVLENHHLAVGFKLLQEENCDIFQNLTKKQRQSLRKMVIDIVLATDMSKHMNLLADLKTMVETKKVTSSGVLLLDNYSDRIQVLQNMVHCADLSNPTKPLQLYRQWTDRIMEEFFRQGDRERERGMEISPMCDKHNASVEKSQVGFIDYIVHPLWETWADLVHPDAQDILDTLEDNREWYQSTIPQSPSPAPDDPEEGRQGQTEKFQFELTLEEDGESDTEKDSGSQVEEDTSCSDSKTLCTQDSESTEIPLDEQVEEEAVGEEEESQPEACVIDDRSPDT

| activation at 100 µM | activation of PDE4D5 (FIG. 1) (concentration-response) | Compound |
| --- | --- | --- |
| 140% | concentration-dependent activation | Cc1cncc(-c2nc3cc(C(=O)N[C@H]4CCOc5ccccc54)ccc3[nH]2)c1 [Example 4, (S)—N-(chroman-4-yl)-2-(5-methylpyridin-3-yl)-1H-benzo[d]imidazole-5-carboxamide] |
| 115% | – | Cc1ccc(-c2nc3cc(C(=O)N[C@H]4CCOc5ccccc54)ccc3[nH]2)cn1 [Example 2, (S)—N-(chroman-4-yl)-2-(6-methylpyridin-3-yl)-1H-benzo[d]imidazole-5-carboxamide] |
| 45% | – | Cc1cncc(-c2nc3ccc(C(=O)N[C@H]4CCOc5ccccc54)cc3n2C)c1 [Example 28, (S)—N-(chroman-4-yl)-1-methyl-2-(5-methylpyridin-3-yl)-1H-benzo[d]imidazole-6-carboxamide] |
| 33% | – | Cc1ccncc1-c1nc2cc(C(=O)N[C@H]3CCOc4ccccc43)ccn2n1 [Example 53, (S)—N-(chroman-4-yl)-2-(4-methylpyridin-3-yl)-[1,2,4]triazolo[1,5-a]pyridine-7-carboxamide] |
